Where two headings read alike, the source gives them in different places. Values belong to the compound of their own block, whether it stands above or below them.
Tests used:
[1] = tested on: T24-BAG4 human bladder carcinoma cells expressing an activated H-ras gene; assay: Cell mat assay, T24-BAG4 tumor cells; assay type: cell-based; details: Homo sapiens, 336 h, read-out: Tumor (T-24) IC50
Description: (§1) Compound-induced colony inhibition was assayed by addition of serial dilutions of compound directly to the growth medium 24 h after tumor cell planting, and incubating cells for an additional 14 d to allow colony formation. Assays were terminated by rinsing monolayers twice with phosphate-buffered saline (PBS), fixing the monolayers with a 1% glutaraldehyde solution in PBS, then visualizing tumor cells by staining with X-Gal (Price, J., et al., Lineage analysis in the vertebrate nervous system by retrovirus-mediated gene transfer, Proc. Natl. Acad. Sci.84, 156-160(1987)). […] Both IC50 values were obtained by determining the density of tumor cells and mat cells by visual inspection and enumeration of cells per colony and the number of colonies under the microscope.

[2] = tested on: Ras-CVLS processing in COS cells; assay: Cell-based COS cell assay: inhibition of Ras processing (Ras-CVLS); set-up: species or system monkey; details: Primates, COS
Source text: (§2) Transient expression of val^12 -Ha-Ras-CVLS and […] -Ha-Ras-CVLL in COS monkey kidney cells: Effect of farnesyl protein transferase inhibitors on Ras processing and on disordered cell growth induced by transforming Ras.
(§3) COS monkey kidney cells were transfected by electroporation with the plasmid pSV-SPORT (Gibco/BRL) containing a cDNA insert encoding either Ras-CVLS or Ras-CVLL, leading to transient overexpression of a Ras substrate for either farnesyl protein transferase or geranylgeranyl protein transferase I, respectively (see above).
Following electroporation, cells were plated into 6-well tissue culture dishes containing 1.5 ml of Dulbecco's-modified Eagle's media (GIBCO, Inc.) supplemented with 10% fetal calf serum and the appropriate farnesyl protein transferase inhibitors. After 24 hours, media was removed and fresh media containing the appropriate drugs was re-added.
48 hours after electroporation cells were examined under the microscope to monitor disordered cell growth induced by transforming Ras. Cells expressing transforming Ras become more rounded and refractile and overgrow the monolayer, reminiscent of the transformed phenotype. Cells were then photographed, washed twice with 1 ml of cold phosphate-buffered saline (PBS) and removed from the dish by scraping with a rubber policeman into 1 ml of a buffer containing 25 mM Tris, pH 8.0; 1 mM ethylenediamine tetraacetic acid; 1 mM phenylmethylsulfonyl fluoride; […]; and 0.1 mM pepstatin. Cells were lysed by homogenization and cell debris was removed by centrifugation at 2000× g for 10 min.
Cellular protein was precipitated by addition of ice-cold trichloroacetic acid and redissolved in […] of SDS-electrophoresis sample buffer. […] Proteins resolved on the gels were electroblotted onto nitrocellulose membranes for immunodetection.
After washing, membranes were incubated for one hour at room temperature with a 1:5000 dilution of secondary antibody, rabbit anti-rat lgG conjugated to horseradish peroxidase, in PBS containing 1% fetal calf serum. The presence of processed and unprocessed Ras-CVLS or Ras-CVLL was detected using a colorimetric peroxidase reagent (4-chloro-1-naphthol) as described by the manufacturer (Bio-Rad).

[3] = target: T1, farnesyl protein transferase (FPT) (Rattus norvegicus, UniProt Q02293+Q04631); assay: In vitro enzyme assay: inhibition of farnesyl protein transferase (FPT), [3H]farnesyl transfer to Ras-CVLS; assay type: biochemical
T1 construct: were partially purified from rat brain by ammonium sulfate fractionation; from tissue; host or cells: rat brain (ammonium sulfate fractionation, Q-Sepharose)
Description: (§4) 1. In vitro enzyme assays:
(§5) Inhibition of farnesyl protein transferase and geranylgeranyl protein transferase.
Human farnesyl protein transferase was also expressed in E. coli, using cDNA clones encoding both the a and b subunits. […] Human farnesyl protein transferase was partially-purified from the soluble protein fraction of E. coli as described above. […] Two forms of val^12 -Ha-Ras protein were prepared as substrates for these enzymes, differing in their carboxy terminal sequence. One form terminated in cysteine-valine-leucine-serine (Ras-CVLS) the other in cystein-valine-leucine-leucine (Ras-CVLL). Ras-CVLS is a substrate for the farnesyl protein transferase while Ras-CVLL is a substrate for geranylgeranyl protein transferase I. The cDNAs encoding these proteins were constructed so that the proteins contain an amino-terminal extension of 6 histidine residues. Both proteins were expressed in Escherichia coli and purified using metal chelate affinity chromatography. The radiolabelled isoprenyl pyrophosphate substrates, [^3 H]farnesyl pyrophosphate and [^3 H] geranylgeranyl pyrophosphate, were purchased from DuPont/New England Nuclear.
The reaction was allowed to proceed for 30 minutes at room temperature and then stopped with 0.5 ml of 4% sodium dodecyl sulfate (SDS) followed by 0.5 ml of cold 30% TCA. Samples were allowed to sit on ice for 45 minutes and precipitated Ras protein was then collected on GF/C filter paper mats using a Brandel cell harvester. […] Percent inhibition was calculated relative to the DMSO vehicle control.

[4] = target: T2, geranylgeranyl protein transferase (GGPT) I (Rattus norvegicus, UniProt P53610+Q04631); assay: In vitro enzyme assay: inhibition of geranylgeranyl protein transferase I (GGPT), Ras-CVLL as acceptor; assay type: biochemical
T2 construct: were partially purified from rat brain by ammonium sulfate fractionation; from tissue; host or cells: rat brain (ammonium sulfate fractionation, Q-Sepharose)
Source text: as §4, §5
Both farnesyl protein transferase (FPT) and geranylgeranyl protein transferase (GGPT) I were partially purified from rat brain by ammonium sulfate fractionation followed by Q-Sepharose (Pharmacia, Inc.) anion exchange chromatography essentially as described by Yokoyama et al (Yokoyama, K., et al., (1991), A protein geranylgeranyltransferase from bovine brain: Implications for protein prenylation specificity, Proc. Natl. Acad. Sci USA 88: 5302-5306, the disclosure of which is incorporated herein by reference thereto). Human farnesyl protein transferase was also expressed in E. coli, using cDNA clones encoding both the a and b subunits. The methods used were similar to those published (Omer, C. et al., (1993), Characterization of recombinant human farnesyl protein transferase: Cloning, expression, farnesyl diphosphate binding, and functional homology with yeast prenyl-protein transferases, Biochemistry 32:5167-5176). Human farnesyl protein transferase was partially-purified from the soluble protein fraction of E. coli as described above. The tricyclic farnesyl protein transferase inhibitors disclosed herein inhibited both human and rat enzyme with similar potencies. […]

[5] = tested on: DLD-1-BAG human colon carcinoma cells; assay: Cell mat assay, DLD-1-BAG tumor cells; assay type: cell-based; details: Homo sapiens, DLD-1, 336 h, read-out: Tumor (DLD-1) IC50
Description: as §1
(§6) Additional assays were carried out by following essentially the same procedure as described above, but with substitution of alternative indicator tumor cell lines in place of the T24-BAG cells. The assays were conducted using either DLD-1-BAG human colon carcinoma cells expressing as activated K-ras gene or SW620-BAG human colon carcinoma cells expressing an activated K-ras gene.

[6] = tested on: Normal human HEPM fibroblasts; assay: Cell mat assay, normal cells (cell mat); assay type: cell-based; details: Homo sapiens, Fibroblast, 336 h, read-out: Normal IC50
Description: as §1

[7] = tested on: SW620-BAG human colon carcinoma cells expressing an activated K-ras gene; assay: Cell mat assay, SW620-BAG tumor cells; assay type: cell-based; details: Homo sapiens, SW-620, 336 h, read-out: Tumor (SW620) IC50, Mat assay, 14 d
Description: as §1, §6

K ras NIH 3T3 = assay: Soft agar assay; assay type: cell-based; details: Mus musculus, NIH3T3, read-out: IC50, inhibition of human tumor cell growth, soft agar
H ras NIH 3T3 = assay: Soft agar assay; assay type: cell-based; details: Mus musculus, NIH3T3, read-out: IC50, inhibition of human tumor cell growth, soft agar
[8] = tested on: DLD-1 (human colon carcinoma cells); assay: In vivo anti-tumor studies, subcutaneous DLD-1 tumors in athymic nu/nu mice; set-up: species or system athymic nu/nu female mice; details: Mus musculus, DLD-1, po, […], QID, 7 days per week for 4 weeks, read-out: Average % Tumor Inhibition; for inhibition in vivo at 50 mg/kg: 50 mg/kg p.o.; for inhibition in vivo at 10 mg/kg: 10 mg/kg p.o.
Description: Tumor bearing animals are selected and randomized when the tumors are established. Animals are treated with vehicle (β-cyclodextrin for i.p. or corn oil for p.o.) only or with a compound of the present invention in vehicle four times a day (QID) for 7 days per week for 4 weeks. The percent inhibition of tumor growth relative to vehicle controls is determined by tumor measurements.

HTB 175 = assay: Soft agar assay; assay type: cell-based; details: Homo sapiens; HTB 175 (SCLC) ras mut. not detected; read-out: IC50, inhibition of human tumor cell growth, soft agar
Description: (§7) Anchorage-independent growth is a characteristic of tumorigenic cell lines. Human tumor cells are suspended in growth medium containing 0.3% agarose and an indicated concentration of a farnesyl transferase inhibitor. The solution is overlayed onto growth medium solidified with 0.6% agarose containing the same concentration of farnesyl transferase inhibitor as the top layer. […] After incubation, the colonies are stained by overlaying the agar with a solution of MTT (3-[4,5-dimethylthiazol-2-yl]-2,5-diphenyltetrazolium bromide, Thiazolyl blue) (1 mg/mL in PBS). Colonies are counted and the IC50's determined.

HTB 177 = assay: Soft agar assay; assay type: cell-based; details: Homo sapiens; HTB 177 (NSCLC) K ras mutation; read-out: IC50, inhibition of human tumor cell growth, soft agar
Description: as §7

A549 = assay: Soft agar assay; assay type: cell-based; details: Homo sapiens; A549 (lung) K ras mutation; read-out: IC50, inhibition of human tumor cell growth, soft agar
Description: as §7

[9] = tested on: geranylgeranylation of Ras-CVLL in COS cells; assay: Cell-based COS cell assay: geranylgeranylation of Ras-CVLL; set-up: species or system monkey; details: at concentrations up to 33 μM
Source text: as §2
as §3, with “above). […]” for “above).”
Membranes were blocked by incubation overnight at 4° C. in PBS containing 2.5% dried milk and 0.5% Tween-20 and then incubated with a Ras-specific monoclonal antibody, Y13-259 (Furth, M. E., et al., (1982), Monoclonal antibodies to the p21 products of the transforming gene of Harvey murine sarcome virus and of the cellular ras gene family, J. Virol. 43:294-304), in PBS containing 1% fetal calf serum for one hour at room temperature. […] The presence of processed and unprocessed Ras-CVLS or Ras-CVLL was detected using a colorimetric peroxidase reagent (4-chloro-1-naphthol) as described by the manufacturer (Bio-Rad).

T2 sequence (P53610 whole entry, one chain of several): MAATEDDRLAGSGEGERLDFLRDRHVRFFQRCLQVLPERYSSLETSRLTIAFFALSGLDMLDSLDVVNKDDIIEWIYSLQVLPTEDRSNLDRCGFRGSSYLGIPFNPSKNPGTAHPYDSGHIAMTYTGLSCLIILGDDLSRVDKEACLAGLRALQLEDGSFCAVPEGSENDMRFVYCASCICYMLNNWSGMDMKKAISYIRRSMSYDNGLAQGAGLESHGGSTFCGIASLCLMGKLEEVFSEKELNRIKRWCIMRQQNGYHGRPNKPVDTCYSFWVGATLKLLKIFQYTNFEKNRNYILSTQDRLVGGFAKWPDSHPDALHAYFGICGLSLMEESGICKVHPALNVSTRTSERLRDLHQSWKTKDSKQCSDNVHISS

Structure (SMILES): O=C(Cc1cc[n+]([O-])cc1)N1CCN(C2c3ccc(Cl)c(Br)c3CCc3cc(Br)cnc32)CC1 (racemic) [Example 5B]
- IC50 [1]: < 1600 nM
- IC50 ([2]; read-out: Inhibition of Ras Processing IC50, Table 3, COS cells): 50 nM
- IC50 [3]: ~3 nM
- IC50 [4]: > 300000 nM
- IC50 [5]: 3100 nM
- IC50 [6]: > 25000 nM
- IC50 [7]: 10000 nM

- IC50 (A549): 300 nM
Structure (SMILES): NC(=O)N1CCC(CC(=O)N2CCC(C3c4ncc(Br)cc4CCc4cc(Cl)cc(Cl)c43)CC2)CC1 (single isomer, unassigned) [Example 18]
- IC50 (K ras NIH 3T3): 800 nM
- IC50 (H ras NIH 3T3): 175 nM
- inhibition in vivo at 50 mg/kg ([8]; Experiment No. 1): 73%
- inhibition in vivo at 10 mg/kg ([8]; Experiment No. 2): 43%
- IC50 (HTB 175): 600 nM
- IC50 (HTB 177): 200 nM

Structure (SMILES): O=C(Cc1cc[n+]([O-])cc1)N1CCN(C2c3ncc(Br)cc3CCc3cccc(Cl)c32)CC1 (single isomer, unassigned) [Example 20]
- IC50 [3]: 6.2 nM
- IC50 [4]: > 38000 nM

Structure (SMILES): O=C(Cc1cc[n+]([O-])cc1)N1CCC(=C2c3ccc(Cl)c(Br)c3CCc3cc(Br)cnc32)CC1 [Example 2]
- block of geranylgeranylation of Ras-CVLL [9]: did not block the geranylgeranylation of Ras-CVLL
- IC50 ([2]; Table 3, COS cells, read-out: Inhibition of Ras Processing IC50): 250 nM
- inhibition in vivo at 50 mg/kg ([8]; Experiment No. 1): 47%
- inhibition in vivo at 10 mg/kg ([8]; Experiment No. 2): 25%
- inhibition in vivo at 50 mg/kg ([8]; Experiment No. 3): 52.7%
- inhibition in vivo at 10 mg/kg ([8]; Experiment No. 4): 31.9%

— patent US5874442A, “Tricyclic amides useful for inhibition of G-protein function and for treatment of proliferative disease” (Schering-Plough Corporation, priority 1996, dated 1999)
